Results from PubChem BioAssay (NCI).
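Cells were grown in 96-well plates and exposed to each compound for 48 hours at five concentrations; endpoints were interpolated linearly between bracketing concentrations, or set to the highest concentration if not reached. GI50 marks 50% less growth. TGI: total growth inhibition.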

Key:
Test in all cases: DTP human tumour cell line panel, 48 h
MOLT-4 leukemia = system: MOLT-4 leukemia
NCI-H23 lung = system: NCI-H23 lung
HOP-62 NSCLC = system: HOP-62 NSCLC
CAKI-1 renal = system: CAKI-1 renal
HCT-15 colon = system: HCT-15 colon
EKVX NSCLC = system: EKVX NSCLC
786-0 renal = system: 786-0 renal
A498 renal = system: A498 renal
NCI-H522 lung = system: NCI-H522 lung
SF-268 CNS = system: SF-268 CNS
RXF 393 renal = system: RXF 393 renal
OVCAR-4 ovarian = system: OVCAR-4 ovarian
SF-295 CNS = system: SF-295 CNS
SW-620 colon = system: SW-620 colon
SN12C renal = system: SN12C renal
UO-31 renal = system: UO-31 renal
OVCAR-3 ovarian = system: OVCAR-3 ovarian
K-562 leukemia = system: K-562 leukemia
HL-60(TB) leukemia = system: HL-60(TB) leukemia
SK-MEL-2 melanoma = system: SK-MEL-2 melanoma
U251 CNS = system: U251 CNS
OVCAR-5 ovarian = system: OVCAR-5 ovarian
COLO 205 colon = system: COLO 205 colon
UACC-62 melanoma = system: UACC-62 melanoma
HOP-92 NSCLC = system: HOP-92 NSCLC
RPMI-8226 leukemia = system: RPMI-8226 leukemia
NCI-H460 lung = system: NCI-H460 lung
M14 melanoma = system: M14 melanoma
UACC-257 melanoma = system: UACC-257 melanoma

SMILES: C=CCSSC1N=CNc2nc[nH]c21 (stereo not drawn)
- GI50 (MOLT-4 leukemia): 2.15 µM
- TGI (MOLT-4 leukemia): > 24.1 µM
- GI50 (NCI-H23 lung): 8.09 µM
- TGI (NCI-H23 lung): 42.8 µM
- GI50 (HOP-62 NSCLC): 1.54 µM
- TGI (HOP-62 NSCLC): > 70.4 µM
- GI50 (CAKI-1 renal): 1.97 µM
- TGI (CAKI-1 renal): 34.5 µM
- GI50 (HCT-15 colon): 4.71 µM
- TGI (HCT-15 colon): 24.5 µM
- GI50 (EKVX NSCLC): 49.4 µM
- TGI (EKVX NSCLC): > 100 µM
- GI50 (786-0 renal): 1.75 µM
- TGI (786-0 renal): > 36.3 µM
- GI50 (A498 renal): 67.2 µM
- TGI (A498 renal): > 100 µM
- GI50 (NCI-H522 lung): 4.34 µM
- TGI (NCI-H522 lung): 48.3 µM
- GI50 (SF-268 CNS): 5.66 µM
- TGI (SF-268 CNS): > 46.9 µM
- GI50 (RXF 393 renal): 4.73 µM
- TGI (RXF 393 renal): 21.5 µM
- GI50 (OVCAR-4 ovarian): 0.446 µM
- TGI (OVCAR-4 ovarian): 5.43 µM
- GI50 (SF-295 CNS): 2.61 µM
- TGI (SF-295 CNS): > 100 µM
- GI50 (SW-620 colon): 3.71 µM
- TGI (SW-620 colon): 14.9 µM
- GI50 (SN12C renal): 10.4 µM
- TGI (SN12C renal): > 67.4 µM
- GI50 (UO-31 renal): 2.72 µM
- TGI (UO-31 renal): 13 µM
- GI50 (OVCAR-3 ovarian): 0.944 µM
- TGI (OVCAR-3 ovarian): 14.2 µM
- GI50 (K-562 leukemia): 0.343 µM
- TGI (K-562 leukemia): > 26 µM
- GI50 (HL-60(TB) leukemia): 2.4 µM
- TGI (HL-60(TB) leukemia): > 26.2 µM
- GI50 (SK-MEL-2 melanoma): 6.11 µM
- TGI (SK-MEL-2 melanoma): 19.2 µM
- GI50 (U251 CNS): 15.9 µM
- TGI (U251 CNS): > 54.4 µM
- GI50 (OVCAR-5 ovarian): 7.53 µM
- TGI (OVCAR-5 ovarian): > 50.6 µM
- GI50 (COLO 205 colon): 3.52 µM
- TGI (COLO 205 colon): 14.7 µM
- GI50 (UACC-62 melanoma): 1.75 µM
- TGI (UACC-62 melanoma): > 57.7 µM
- GI50 (HOP-92 NSCLC): 0.376 µM
- TGI (HOP-92 NSCLC): 17 µM
- GI50 (RPMI-8226 leukemia): 1.44 µM
- TGI (RPMI-8226 leukemia): 6.26 µM
- GI50 (NCI-H460 lung): 8.16 µM
- TGI (NCI-H460 lung): > 100 µM
- GI50 (M14 melanoma): 0.461 µM
- TGI (M14 melanoma): 18.6 µM
- GI50 (UACC-257 melanoma): 5.34 µM
- TGI (UACC-257 melanoma): 16.8 µM
